In ChEMBL document CHEMBL5223117, “Synthesis and biological evaluation of novel N, N'-diarylurea derivatives as potent antibacterial agents against MRSA” (Bioorg Med Chem Lett, 2022):
pIC50: −log10 of the molar value. Values after ≈ are worked out from the molar mass of the structure shown.

How the values were obtained:
[1] = Cytotoxicity against human HeLa cells by SRB assay; format: toxicity, cell-based
Staphylococcus aureus [2] = test: Antibacterial activity against vancomycin intermediate and methicillin resistant Staphylococcus aureus ATCC 700699; format: functional
Enterococcus faecium [3] = test: Antibacterial activity against Vanomycin-resistant Enterococcus faecium ATCC 700221; format: functional
Staphylococcus aureus [4] = test: Antibacterial activity against methicillin resistant Staphylococcus aureus 20-11; format: functional
Staphylococcus aureus [5] = test: Selectivity ratio of MBC for bactericidal activity against vancomycin intermediate and methicillin resistant Staphylococcus aureus ATCC 700698 to MIC for antibacterial activity against vancomycin intermediate and methicillin resistant Staphylococcus aureus ATCC 700698; format: functional
Staphylococcus aureus [6] = test: Antibacterial activity against methicillin resistant Staphylococcus aureus 18-2; format: functional
[7] = tested on: Staphylococcus epidermidis; test: Antibacterial activity against methicillin resistant Staphylococcus epidermidis 19-1; format: functional
Staphylococcus aureus [8] = test: Antibacterial activity against methicillin resistant Staphylococcus aureus ATCC 33591; format: functional
Enterococcus faecium [9] = test: Bactericidal activity against Vanomycin-resistant Enterococcus faecium ATCC 700221; format: functional
Staphylococcus aureus [10] = test: Antibacterial activity against methicillin sensitive Staphylococcus aureus 20-12; format: functional
Enterococcus faecium [11] = test: Antibacterial activity against Vanomycin-resistant Enterococcus faecium 15-6; format: functional
Staphylococcus aureus [12] = test: Selectivity ratio of MBC for bactericidal activity against methicillin resistant Staphylococcus aureus ATCC 33591 to MIC for antibacterial activity against methicillin resistant Staphylococcus aureus ATCC 33591; format: functional
Staphylococcus aureus [13] = test: Antibacterial activity against methicillin sensitive Staphylococcus aureus ATCC 29213; format: functional
Staphylococcus aureus [14] = test: Antibacterial activity against methicillin resistant Staphylococcus aureus ATCC 43300; format: functional
Enterococcus faecium [15] = test: Selectivity ratio of MBC for bactericidal activity against Vanomycin-resistant Enterococcus faecium ATCC 700221 to MIC for antibacterial activity against Vanomycin-resistant Enterococcus faecium ATCC 700221; format: functional
Enterococcus faecalis [16] = test: Antibacterial activity against Vanomycin-resistant Enterococcus faecalis ATCC 51299; format: functional
Enterococcus faecium [17] = test: Antibacterial activity against Vanomycin-resistant Enterococcus faecium ATCC 51559; format: functional
[18] = tested on: Staphylococcus epidermidis; test: Antibacterial activity against methicillin sensitive Staphylococcus epidermidis ATCC 12228; format: functional
Staphylococcus aureus [19] = test: Selectivity ratio of MBC for bactericidal activity against methicillin resistant Staphylococcus aureus 16-30 to MIC for antibacterial activity against methicillin resistant Staphylococcus aureus 16-30; format: functional
Enterococcus faecalis [20] = test: Antibacterial activity against Vanomycin-resistant Enterococcus faecalis ATCC 51575; format: functional
[21] = tested on: Staphylococcus epidermidis; test: Antibacterial activity against methicillin resistant Staphylococcus epidermidis 19-2; format: functional
Staphylococcus aureus [22] = test: Selectivity ratio of MBC for bactericidal activity against methicillin resistant Staphylococcus aureus ATCC 43300 to MIC for antibacterial activity against methicillin resistant Staphylococcus aureus ATCC 43300; format: functional
Enterococcus faecalis [23] = test: Bactericidal activity against Vanomycin-resistant Enterococcus faecalis ATCC 51299; format: functional
Staphylococcus aureus [24] = test: Antibacterial activity against vancomycin intermediate and methicillin resistant Staphylococcus aureus ATCC 700698; format: functional
Staphylococcus aureus [25] = test: Antibacterial activity against methicillin sensitive Staphylococcus aureus 15; format: functional
Staphylococcus aureus [26] = test: Bactericidal activity against methicillin resistant Staphylococcus aureus 16-30; format: functional
Staphylococcus aureus [27] = test: Bactericidal activity against vancomycin intermediate and methicillin resistant Staphylococcus aureus ATCC 700698; format: functional
Staphylococcus aureus [28] = test: Antibacterial activity against methicillin sensitive Staphylococcus aureus ATCC 33591; format: functional
[29] = Cytotoxicity against human HepG2 cells by SRB assay; format: toxicity, cell-based
Enterococcus faecalis [30] = test: Selectivity ratio of MBC for bactericidal activity against Vanomycin-resistant Enterococcus faecalis ATCC 51299 to MIC for antibacterial activity against Vanomycin-resistant Enterococcus faecalis ATCC 51299; format: functional
Staphylococcus aureus [31] = test: Bactericidal activity against methicillin resistant Staphylococcus aureus ATCC 33591; format: functional
Staphylococcus aureus [32] = test: Bactericidal activity against methicillin resistant Staphylococcus aureus ATCC 43300; format: functional
Staphylococcus aureus [33] = test: Antibacterial activity against methicillin resistant Staphylococcus aureus 16-30; format: functional
[34] = tested on: Staphylococcus epidermidis; test: Antibacterial activity against methicillin sensitive Staphylococcus epidermidis 17-13; format: functional

SMILES | pIC50 [1] | MIC (Staphylococcus aureus [2]) [µM] | MIC (Enterococcus faecium [3]) [µM] | MIC (Staphylococcus aureus [4]) [µM] | MIC (Staphylococcus aureus [6]) [µM] | MIC [7] [µM] | MIC (Staphylococcus aureus [8]) [µM] | MIC (Staphylococcus aureus [10]) [µM] | MIC (Enterococcus faecium [11]) [µM] | MIC (Staphylococcus aureus [13]) [µM] | MIC (Staphylococcus aureus [14]) [µM] | MIC (Enterococcus faecalis [16]) [µM] | MIC (Enterococcus faecium [17]) [µM] | MIC [18] [µM] | MIC (Enterococcus faecalis [20]) [µM] | MIC [21] [µM] | MIC (Staphylococcus aureus [24]) [µM] | MIC (Staphylococcus aureus [25]) [µM] | MIC (Staphylococcus aureus [28]) [µM] | MIC [34] [µM] | also measured
O=C(Nc1ccc(Cl)c(C(F)(F)F)c1)Nc1cc(F)c(F)c(F)c1F | 5.05 | 0.31 (≈ 0.12 µg/mL) | 1.29 (≈ 0.499 µg/mL) | 0.31 (≈ 0.12 µg/mL) | 0.31 (≈ 0.12 µg/mL) | 0.31 (≈ 0.12 µg/mL) | 0.31 (≈ 0.12 µg/mL) | 0.65 (≈ 0.251 µg/mL) | 1.29 (≈ 0.499 µg/mL) | 0.31 (≈ 0.12 µg/mL) | 0.31 (≈ 0.12 µg/mL) | 2.59 (≈ 1 µg/mL) | 1.29 (≈ 0.499 µg/mL) | 0.65 (≈ 0.251 µg/mL) | 5.17 (≈ 2 µg/mL) | 0.65 (≈ 0.251 µg/mL) | 0.31 (≈ 0.12 µg/mL) | 0.31 (≈ 0.12 µg/mL) | 0.31 (≈ 0.12 µg/mL) | 0.31 (≈ 0.12 µg/mL) | Ratio (Staphylococcus aureus [5]): 33; MBC (Enterococcus faecium [9]): > 82.8 µM; Ratio (Staphylococcus aureus [12]): 33; Ratio (Enterococcus faecium [15]): >32; Ratio (Staphylococcus aureus [19]): 16; Ratio (Staphylococcus aureus [22]): 33; MBC (Enterococcus faecalis [23]): > 82.8 µM; MBC (Staphylococcus aureus [26]): 10.3 µM (≈ 4 µg/mL); MBC (Staphylococcus aureus [27]): 10.3 µM (≈ 4 µg/mL); pIC50 [29]: 5.15; Ratio (Enterococcus faecalis [30]): >32; MBC (Staphylococcus aureus [31]): 10.3 µM (≈ 4 µg/mL); MBC (Staphylococcus aureus [32]): 10.3 µM (≈ 4 µg/mL); MIC (Staphylococcus aureus [33]): 0.65 µM (≈ 0.251 µg/mL)
O=C(Nc1ccc2c(c1)OC(F)(F)O2)Nc1ccc(Cl)c(C(F)(F)F)c1 | 5.04 | 0.63 (≈ 0.249 µg/mL) | 10.1 (≈ 4 µg/mL) | 1.27 (≈ 0.501 µg/mL) | 1.27 (≈ 0.501 µg/mL) | 1.27 (≈ 0.501 µg/mL) | 0.63 (≈ 0.249 µg/mL) | 1.27 (≈ 0.501 µg/mL) | 5.07 (≈ 2 µg/mL) | 0.63 (≈ 0.249 µg/mL) | 0.63 (≈ 0.249 µg/mL) | 5.07 (≈ 2 µg/mL) | 10.1 (≈ 4 µg/mL) | 1.27 (≈ 0.501 µg/mL) | 10.1 (≈ 4 µg/mL) | 1.27 (≈ 0.501 µg/mL) | 0.63 (≈ 0.249 µg/mL) | 0.63 (≈ 0.249 µg/mL) | 0.63 (≈ 0.249 µg/mL) | 1.27 (≈ 0.501 µg/mL) | Ratio (Staphylococcus aureus [12]): 4; Ratio (Staphylococcus aureus [19]): 8; Ratio (Staphylococcus aureus [22]): 4; MBC (Staphylococcus aureus [26]): 5.07 µM (≈ 2 µg/mL); pIC50 [29]: 5.25; MBC (Staphylococcus aureus [31]): 2.53 µM (≈ 0.999 µg/mL); MBC (Staphylococcus aureus [32]): 2.53 µM (≈ 0.999 µg/mL); MIC (Staphylococcus aureus [33]): 0.63 µM (≈ 0.249 µg/mL)
O=C(Nc1ccc(Cl)cc1)Nc1ccc(Cl)c(C(F)(F)F)c1 [CLOFLUCARBAN] | 5.35 | 0.34 (≈ 0.119 µg/mL) | 1.43 (≈ 0.499 µg/mL) | 0.72 (≈ 0.251 µg/mL) | 0.34 (≈ 0.119 µg/mL) | 0.72 (≈ 0.251 µg/mL) | 0.34 (≈ 0.119 µg/mL) | 1.43 (≈ 0.499 µg/mL) | 2.86 (≈ 0.999 µg/mL) | 0.34 (≈ 0.119 µg/mL) | 0.72 (≈ 0.251 µg/mL) | 1.43 (≈ 0.499 µg/mL) | 1.43 (≈ 0.499 µg/mL) | 0.72 (≈ 0.251 µg/mL) | 2.86 (≈ 0.999 µg/mL) | 0.72 (≈ 0.251 µg/mL) | 0.72 (≈ 0.251 µg/mL) | 0.72 (≈ 0.251 µg/mL) | 0.34 (≈ 0.119 µg/mL) | 0.72 (≈ 0.251 µg/mL) | Ratio (Staphylococcus aureus [5]): >32; MBC (Enterococcus faecium [9]): > 91.7 µM; Ratio (Staphylococcus aureus [12]): >135; Ratio (Enterococcus faecium [15]): >64; Ratio (Staphylococcus aureus [19]): >32; Ratio (Staphylococcus aureus [22]): >64; MBC (Enterococcus faecalis [23]): > 183 µM; MBC (Staphylococcus aureus [26]): > 22.9 µM; MBC (Staphylococcus aureus [27]): > 22.9 µM; pIC50 [29]: 5.11; Ratio (Enterococcus faecalis [30]): >128; MBC (Staphylococcus aureus [31]): > 45.8 µM; MBC (Staphylococcus aureus [32]): > 45.8 µM; MIC (Staphylococcus aureus [33]): 0.72 µM (≈ 0.251 µg/mL)
CNC(=O)c1cc(Oc2ccc(NC(=O)Nc3ccc(Cl)c(C(F)(F)F)c3)cc2)ccn1 [SORAFENIB] | 5.48 | 4.3 (≈ 2 µg/mL) | 275 (≈ 128 µg/mL) | 8.61 (≈ 4 µg/mL) | 17.2 (≈ 8 µg/mL) | 4.3 (≈ 2 µg/mL) | – | 8.61 (≈ 4 µg/mL) | 275 (≈ 128 µg/mL) | 8.61 (≈ 4 µg/mL) | 17.2 (≈ 8 µg/mL) | 275 (≈ 128 µg/mL) | 275 (≈ 128 µg/mL) | 4.3 (≈ 2 µg/mL) | 275 (≈ 128 µg/mL) | 4.3 (≈ 2 µg/mL) | 17.2 (≈ 8 µg/mL) | 4.3 (≈ 2 µg/mL) | 8.61 (≈ 4 µg/mL) | 8.61 (≈ 4 µg/mL) | –
